Experimental data: patent US10450322B2, “Low molecular weight derivatives of carboxamide halogenated porphyrins, namely chlorins and bacteriochlorins, and their applications thereof” (LUZITIN, S.A., priority 2015, dated 2019)

What was measured:
[1] = system: A549 (human lung adenocarcinoma) cell line; assay: In vitro phototoxicity / dark toxicity towards A549 cells; type: cell-based
Experimental: Phototoxicity towards cancer cell lines was evaluated in vitro using A549 (human lung adenocarcinoma) and CT26 (mouse colon adenocarcinoma) cell lines. The cells were cultured in Dulbecco's modified Eagles's medium (DMEM) supplemented with 10% heat-inactivated fetal bovine serum and 1% penicillin. Cells were plated at a density of 20,000/well and 15,000/well respectively, in flat-bottom 96-well plates. On the following day, diluted solutions of the test compound were prepared (1 mM stock) and added to the cells for 30-min incubation. […] The wells were washed two times with PBS and irradiated after 30-min of incubation using the LED light described above. Light dose was 1 J/cm^2. The medium was replaced with fresh one after irradiation and the plates were incubated for 24 h, at which time the cellular viability was assessed by resazurin method using a microplate spectrophotometer (Synergy HT Biotek).
This example describes the evaluation of in vitro phototoxicity of a carboxamide bacteriochlorin with formula IX after light irradiation, and their potential for PDT of cancer. The formulation employed was the same as that of Example 4. […] The phototoxicity was measured according to the description in the Materials and Methods section. The phototoxicity of the test compound was assessed in terms of the percentage of survival of the cells for various concentrations of the test compound incubated for 30 min, followed by washings with PBS, addition of the culture medium and illumination with a light dose of 1 J/cm^2.

[2] = Triplet-triplet transient absorption / photoacoustic calorimetry; type: physicochemical
Experimental: The triplet-triplet transient absorption was recorded in an Applied Photophysics LKS.60 laser flash photolysis spectrometer, with a Hewlett-Packard Infinium Oscilloscope and a Spectra-Physics Quanta-Ray GCR-130 Nd:YAG laser as excitation source. The pulse excitation was set at 355 nm.
The thermal energy released after electronic excitation was measured by time-resolved photoacoustic calorimetry using a front-face irradiation photoacoustic cell and a EKSPLA OPO model PG-122 pumped by an EKSPLA Nd:YAG. The signal detection was made using a 2.25 MHz Panametrics transducer. The excitation was at 690 nm and azulene was used as photoacoustic calorimetry reference.
This is indicative of negligible aggregation between the molecules, which exist mostly as monomers at these concentrations in the solvents studied. Table 1 presents the infrared molar absorption coefficient (εmax) and wavelength maximum in ethanol of a typical carboxamide halogenated bacteriochlorin derivative of Formula (I). The same table also presents triplet lifetimes (τT) in air and N2 saturated solutions, fluorescence lifetime (τS), the quantum yields of fluorescence (ΦF), triplet state formation (ΦT), and singlet oxygen generation (ΦΔ) in ethanol, and photodegradation quantum yield (Φpd) in methanol:PBS (3:2). Triplet decays were clearly mono-exponential and in air-saturated ethanol the triplet lifetimes were in the range of 200 to 300 nanoseconds. Such values are consistent with diffusion limited energy transfer from the triplet state of the photosensitizer to molecular oxygen through a charge-transfer interaction (8). The absorption intensity of the test compounds in the photobleaching studies followed a mono-exponential decrease as a function of the illumination time.

P. acnes (ATCC 6919) = assay: In vitro phototoxicity towards Propionibacterium acnes; type: cell-based; settings: 2 μM, 30 min incubation, irradiated with 10 J/cm^2
Experimental: Phototoxicity towards bacteria was evaluated in vitro against P. acnes (ATCC® 6919—Remel, Lenexa, Kans., USA) using light with the appropriate wavelength. P. acnes bacteria was cultured in Reinforced Clostridial Medium (Oxoid, Basingstok, UK) under anaerobic atmosphere at 37° C. Anaerobic growth conditions were obtained using an anaerobic jar with a sachet for anaerobic conditions generation (Anaerocult A, Merck, Darmstadt, Germany). P. acnes suspension was diluted with culture medium to an optical density at 620 nm of 1.3, corresponding to approximately […] CFU/ml (colony-forming units per milliliter). The diluted suspension was centrifuged at 13000 rpm for 10 minutes, and re-suspended in PBS. Test compound stock solutions were dissolved in PEG400:DMSO ([…] 400:dimethyl sulfoxide) (55:45) and were diluted to the appropriate concentrations with PBS. The incubation of the test compounds with P. acnes was performed in DB Falcon black 96-well plates with clear flat-bottom (Franklin Lakes, N.J., USA), in the absence of light, during 30 minutes. […] After the incubation period, the viability of P. acnes was evaluated. […] The phototoxicity was measured according to the description in the Materials and Methods section. […]

[3] = Fluorescence emission, quantum yield and lifetime; type: physicochemical; settings: in ethanol
Experimental: The fluorescence emission spectra were recorded in the homemade setup composed of a Horiba-Jobin Fluoromax 4, used to excite the samples, connected to a sample holder through an optical fiber. In the sample holder, perpendicular to excitation fiber, an optical fiber is connected to drive the emission light to the spectrophotometer detector Avantes model SensLine, provided with AvaSoft 7.7.2. The excitation slit was set at 2 mm and the integration time was 3 s, with average number of 3. The spectra were collected from 200 nm up to 1100 nm using standard cuvettes of 1 cm of optical path. Fluorescence quantum yields (ΦF) were obtained comparing the integrated fluorescence of the samples with that of a reference fluorimetric compound with known ΦF.
The fluorescence lifetime was determined in homemade equipment composed of a LED that produces a light pulse for exciting the sample, a sample holder, detector and optics. […]
This is indicative of negligible aggregation between the molecules, which exist mostly as monomers at these concentrations in the solvents studied. […] The same table also presents triplet lifetimes (τT) in air and N2 saturated solutions, fluorescence lifetime (τS), the quantum yields of fluorescence (ΦF), triplet state formation (ΦT), and singlet oxygen generation (ΦΔ) in ethanol, and photodegradation quantum yield (Φpd) in methanol:PBS (3:2). […]

CNC(=O)c1c2nc(c(-c3c(F)cccc3F)c3ccc(cc4nc(c(-c5c(F)cccc5F)c5ccc1[nH]5)CC4)[nH]3)CC2 [formula IX, 5-methylcarboxamide-10,20-bis-(2,6-difluorophenyl)bacteriochlorin]
IC50 ([1]; 30 min incubation, irradiated with 1 J/cm^2): 2.5 nM | photosensitizer concentration at which nearly all cells are killed ([1]; A549, 30 min incubation, 1 J/cm^2 (FIG. 6)): 50 nM | concentration with no signs of toxicity in the dark ([1]; A549, incubation in the dark for 30 min): up to 40 μM | τT (N2) triplet lifetime ([2]; N2-saturated ethanol): 71 ± 5 μs | τT (air) triplet lifetime ([2]; air-saturated ethanol): 210 ns | ΦT triplet state formation quantum yield ([2]; in ethanol): 0.45 | log CFU P. Acnes (reduction of bacterial CFU, orders of magnitude) (P. acnes (ATCC 6919)): 9 log CFU | ΦF fluorescence quantum yield [3]: 0.20 | τS fluorescence lifetime [3]: 3.2 ns
